In patent US11912701B2, “Protein kinase inhibitors for promoting liver regeneration or reducing or preventing hepatocyte death” (HEPAREGENIX GMBH, priority 2018, dated 2024):

Experiments:
MKK4 [1] = target: T1, MKK4 (Homo sapiens, UniProt P45985); assay: KINOMEscan competition binding assay, MKK4; conditions: residual percent of control binding (PoC) at 100 nM
T1 construct: S84/D399; host or cells: HEK-293
T1 sequence (P45985 84-399): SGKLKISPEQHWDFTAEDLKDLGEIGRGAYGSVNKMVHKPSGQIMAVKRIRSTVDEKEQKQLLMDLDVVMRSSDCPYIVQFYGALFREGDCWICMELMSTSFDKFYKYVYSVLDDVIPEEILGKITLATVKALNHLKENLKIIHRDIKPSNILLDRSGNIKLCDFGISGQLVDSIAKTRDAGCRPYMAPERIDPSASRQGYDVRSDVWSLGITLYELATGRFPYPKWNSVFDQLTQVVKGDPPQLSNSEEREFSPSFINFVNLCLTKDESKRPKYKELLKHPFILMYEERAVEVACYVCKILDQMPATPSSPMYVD
Method in brief: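 KINOMEscan competition of compound versus immobilized ligand for DNA-tagged MKK4 expressed in HEK-293 cells. Bound kinase was quantified by qPCR after elution.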

BRaf [2] = target: T2, BRaf (Homo sapiens, UniProt P15056); assay: KINOMEscan competition binding assay, BRaf; conditions: ratio PoC (off-target)/PoC (MKK4)
T2 construct: purchased ProQinase GmbH, Freiburg, Germany (33PanQinase Assay Service)
Method in brief: (§1)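 DNA-tagged kinases expressed in HEK-293 cells compete between immobilized ligand on blocked beads and test compound at 100 nM; kinase retained on beads quantified by qPCR of the tag.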

MKK4 [3] = target: T3, MKK4 (Homo sapiens, UniProt P45985); assay: 33PanQinase enzyme assay, MKK4; type: biochemical; conditions: assay 'IC50'; read-out: Potency MKK4 (IC50)
T3 construct: purchased ProQinase GmbH, Freiburg, Germany (33PanQinase Assay Service)
T3 sequence (P45985 1-399): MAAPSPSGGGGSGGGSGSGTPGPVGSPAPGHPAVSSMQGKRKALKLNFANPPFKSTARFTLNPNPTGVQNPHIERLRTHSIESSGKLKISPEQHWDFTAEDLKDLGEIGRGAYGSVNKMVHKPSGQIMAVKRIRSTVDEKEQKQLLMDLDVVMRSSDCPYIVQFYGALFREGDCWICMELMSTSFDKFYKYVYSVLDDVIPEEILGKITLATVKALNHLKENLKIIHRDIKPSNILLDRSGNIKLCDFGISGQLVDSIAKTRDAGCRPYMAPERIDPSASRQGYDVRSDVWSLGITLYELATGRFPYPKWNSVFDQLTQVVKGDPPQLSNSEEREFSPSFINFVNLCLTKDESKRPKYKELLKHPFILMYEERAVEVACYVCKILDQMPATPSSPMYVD
Method in brief: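 Radiometric 33PanQinase assay: kinase, substrate, ATP and compound in standard buffer, 60 min at 30 °C; 33Pi incorporation read by scintillation counting.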

BRaf [4] = target: T2, BRaf; assay: 33PanQinase enzyme assay, BRaf; type: biochemical; conditions: ratio IC50(BRaf)/IC50(MKK4)
Method in brief: (§2)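 Radiometric 33PanQinase format: kinase with substrate, ATP and compound (added in 10% DMSO stock) incubated 60 min at 30° C, stopped with 2% H3PO4, ^33Pi incorporation counted by scintillation. Single-concentration data given as % residual activity; IC50 by least-squares fit, with selectivity as IC50(off-target)/IC50(MKK4).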

MKK7 [5] = target: T4, MKK7 (Homo sapiens, UniProt O14733); assay: KINOMEscan competition binding assay, MKK7; set-up: M1/R419; host or cells: HEK-293; conditions: ratio PoC (off-target)/PoC (MKK4)
T4 sequence (O14733 1-419): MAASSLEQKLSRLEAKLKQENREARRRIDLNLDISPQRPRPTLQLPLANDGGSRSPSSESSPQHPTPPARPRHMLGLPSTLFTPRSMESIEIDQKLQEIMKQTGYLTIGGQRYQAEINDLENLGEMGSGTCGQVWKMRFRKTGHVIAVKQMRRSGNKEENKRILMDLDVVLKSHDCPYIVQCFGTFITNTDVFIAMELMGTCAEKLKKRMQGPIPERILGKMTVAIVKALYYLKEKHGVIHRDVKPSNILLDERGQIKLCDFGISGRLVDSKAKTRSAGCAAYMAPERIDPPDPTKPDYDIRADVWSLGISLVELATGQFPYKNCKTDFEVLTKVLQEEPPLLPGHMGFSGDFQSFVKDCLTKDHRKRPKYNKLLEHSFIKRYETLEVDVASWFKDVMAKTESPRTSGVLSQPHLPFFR
Method in brief: as §1

JNK1 [6] = target: T5, JNK1 (Homo sapiens, UniProt P45983); assay: KINOMEscan competition binding assay, JNK1; set-up: M1/Q384; host or cells: HEK-293; conditions: ratio PoC (off-target)/PoC (MKK4)
Method in brief: as §1
Target sequence in this assay (P45983 1-384 isoform P45983-2): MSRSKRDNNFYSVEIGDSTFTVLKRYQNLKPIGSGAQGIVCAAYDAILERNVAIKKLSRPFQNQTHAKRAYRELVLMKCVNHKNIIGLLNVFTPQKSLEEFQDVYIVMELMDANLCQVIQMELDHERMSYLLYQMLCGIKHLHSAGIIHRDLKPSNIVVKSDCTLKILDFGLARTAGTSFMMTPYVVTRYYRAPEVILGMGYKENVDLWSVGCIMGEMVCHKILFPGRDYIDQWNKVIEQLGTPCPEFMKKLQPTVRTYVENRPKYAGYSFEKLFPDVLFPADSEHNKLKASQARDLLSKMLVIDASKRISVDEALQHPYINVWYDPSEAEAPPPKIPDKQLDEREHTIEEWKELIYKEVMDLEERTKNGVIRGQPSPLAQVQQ

JNK1 [7] = target: T5, JNK1; assay: 33PanQinase enzyme assay, JNK1; type: biochemical; set-up: purchased ProQinase GmbH, Freiburg, Germany (33PanQinase Assay Service); conditions: ratio IC50(JNK1)/IC50(MKK4)
Method in brief: as §2
Target sequence in this assay (P45983 whole entry): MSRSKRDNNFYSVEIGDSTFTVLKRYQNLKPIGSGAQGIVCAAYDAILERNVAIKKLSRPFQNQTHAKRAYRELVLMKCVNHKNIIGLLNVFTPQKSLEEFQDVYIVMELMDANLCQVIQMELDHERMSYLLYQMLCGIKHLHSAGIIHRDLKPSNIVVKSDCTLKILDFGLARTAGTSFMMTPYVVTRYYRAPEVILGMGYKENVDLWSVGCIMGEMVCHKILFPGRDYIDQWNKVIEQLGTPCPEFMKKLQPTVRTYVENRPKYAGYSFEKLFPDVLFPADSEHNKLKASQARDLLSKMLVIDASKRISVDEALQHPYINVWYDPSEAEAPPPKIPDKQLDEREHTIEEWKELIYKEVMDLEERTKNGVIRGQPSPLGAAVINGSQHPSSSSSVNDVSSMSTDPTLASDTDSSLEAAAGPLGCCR

MKK7 [8] = target: T4, MKK7; assay: 33PanQinase enzyme assay, MKK7; type: biochemical; set-up: purchased ProQinase GmbH, Freiburg, Germany (33PanQinase Assay Service); conditions: ratio IC50(MKK7)/IC50(MKK4)
Method in brief: as §2

T2 sequence (P15056 whole entry, species assumed): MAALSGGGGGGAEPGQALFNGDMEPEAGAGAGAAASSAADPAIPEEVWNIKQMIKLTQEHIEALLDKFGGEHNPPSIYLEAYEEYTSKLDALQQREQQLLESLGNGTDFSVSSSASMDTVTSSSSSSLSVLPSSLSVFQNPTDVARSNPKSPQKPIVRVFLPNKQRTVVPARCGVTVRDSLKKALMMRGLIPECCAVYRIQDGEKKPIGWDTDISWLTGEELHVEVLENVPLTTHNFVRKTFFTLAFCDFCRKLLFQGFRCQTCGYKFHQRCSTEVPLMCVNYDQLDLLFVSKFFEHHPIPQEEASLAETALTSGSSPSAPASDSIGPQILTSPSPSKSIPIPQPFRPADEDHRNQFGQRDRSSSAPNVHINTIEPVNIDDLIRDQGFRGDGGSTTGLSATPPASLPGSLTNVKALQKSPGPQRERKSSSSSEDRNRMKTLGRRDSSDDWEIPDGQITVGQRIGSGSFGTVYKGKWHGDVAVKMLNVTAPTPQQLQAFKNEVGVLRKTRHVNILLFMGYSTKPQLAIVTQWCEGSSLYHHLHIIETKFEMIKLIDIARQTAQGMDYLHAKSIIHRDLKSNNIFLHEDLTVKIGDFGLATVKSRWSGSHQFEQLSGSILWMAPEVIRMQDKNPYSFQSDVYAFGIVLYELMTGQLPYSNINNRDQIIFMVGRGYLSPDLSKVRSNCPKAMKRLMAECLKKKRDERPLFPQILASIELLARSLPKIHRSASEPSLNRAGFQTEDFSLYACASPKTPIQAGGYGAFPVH

Row | MKK4 [% Ctrl @ 100 nM (MKK4 [1]) | selectivity based on % Ctrl @100 nM vs. Braf (BRaf [2]) | IC50 (MKK4 [3]) [nM] | Selectivity Braf, IC50(off-target)/IC50(MKK4) (BRaf [4]) | selectivity based on % Ctrl @100 nM vs. MKK7 (MKK7 [5]) | selectivity based on % Ctrl @100 nM vs. JNK1 (JNK1 [6]) | Selectivity JNK1, IC50(off-target)/IC50(MKK4) (JNK1 [7]) | Selectivity IVIKK7, IC50(off-target)/IC50(MKK4) (MKK7 [8]) | SMILES
1 | ++ (1 ≤ PoC < 3) | ++ (100 ≥ ratio > 10) | 100 to 1000 | +++ (IC50(off-target)/IC50(MKK4) > 100) | ++ (100 ≥ ratio > 10) | ++ (100 ≥ ratio > 10) | + (10 ≥ IC50(off-target)/IC50(MKK4) > 3) | +++ (IC50(off-target)/IC50(MKK4) > 100) | COc1ccc(-c2cnc3[nH]cc(C(=O)c4cccc(NS(=O)(=O)Cc5ccccc5)c4F)c3c2)c(Cl)c1 [Example 125, N-(3-(5-(2-chloro-4-methoxyphenyl)-1H-pyrrolo[2,3-b]pyridine-3-carbonyl)-2-fluorophenyl)-1-phenylmethanesulfonamide]
2 | ++ (1 ≤ PoC < 3) | ++ (100 ≥ ratio > 10) | 100 to 1000 | ◯ (3 ≥ IC50(off-target)/IC50(MKK4)) | ++ (100 ≥ ratio > 10) | ++ (100 ≥ ratio > 10) | + (10 ≥ IC50(off-target)/IC50(MKK4) > 3) | +++ (IC50(off-target)/IC50(MKK4) > 100) | CCCS(=O)(=O)Nc1ccc(F)c(C(=O)c2c[nH]c3ncc(-c4ccccc4OC)cc23)c1F [Example 102, N-(2,4-difluoro-3-(5-(2-methoxyphenyl)-1H-pyrrolo[2,3-b]pyridine-3-carbonyl)phenyl)propane-1-sulfonamide]
3 | ◯ (30 ≤ PoC) | ◯ (3 ≥ Ratio) | 100 to 1000 | ◯ (3 ≥ IC50(off-target)/IC50(MKK4)) | ◯ (3 ≥ Ratio) | ◯ (3 ≥ Ratio) | + (10 ≥ IC50(off-target)/IC50(MKK4) > 3) | +++ (IC50(off-target)/IC50(MKK4) > 100) | CCCS(=O)(=O)Nc1ccc(F)c(C(=O)c2c[nH]c3ncc(-c4ccc(OC(F)(F)F)cc4)cc23)c1F [Example 111, N-(2,4-difluoro-3-(5-(4-(trifluoromethoxy)phenyl)-1H-pyrrolo[2,3-b]pyridine-3-carbonyl)phenyl)propane-1-sulfonamide]
4 | +++ (PoC < 1) | +++ (Ratio > 100) | 100 to 1000 | ◯ (3 ≥ IC50(off-target)/IC50(MKK4)) | +++ (Ratio > 100) | +++ (Ratio > 100) | + (10 ≥ IC50(off-target)/IC50(MKK4) > 3) | +++ (IC50(off-target)/IC50(MKK4) > 100) | CCCS(=O)(=O)Nc1ccc(F)c(C(=O)c2c[nH]c3ncc(-c4ccc(C5CCC5)cc4)cc23)c1F [Example 82, N-(3-(5-(4-cyclobutylphenyl)-1H-pyrrolo[2,3-b]pyridine-3-carbonyl)-2,4-difluorophenyl)propane-1-sulfonamide]
5 | +++ (PoC < 1) | +++ (Ratio > 100) | < 100 | +++ (IC50(off-target)/IC50(MKK4) > 100) | +++ (Ratio > 100) | +++ (Ratio > 100) | +++ (IC50(off-target)/IC50(MKK4) > 100) | +++ (IC50(off-target)/IC50(MKK4) > 100) | Cc1cc(F)ncc1-c1cnc2[nH]cc(C(=O)c3ccc(F)c(NS(=O)(=O)CCC(F)(F)F)c3F)c2c1 [Example 157, N-(2,6-difluoro-3-(5-(6-fluoro-4-methylpyridin-3-yl)-1H-pyrrolo[2,3-b]pyridine-3-carbonyl)phenyl)-3,3,3-trifluoropropane-1-sulfonamide]
6 | + (3 ≤ PoC < 30) | ++ (100 ≥ ratio > 10) | 100 to 1000 | +++ (IC50(off-target)/IC50(MKK4) > 100) | ++ (100 ≥ ratio > 10) | ++ (100 ≥ ratio > 10) | + (10 ≥ IC50(off-target)/IC50(MKK4) > 3) | +++ (IC50(off-target)/IC50(MKK4) > 100) | Cc1cc(F)ccc1-c1cnc2[nH]cc(C(=O)c3cccc(NS(=O)(=O)Cc4ccccc4)c3F)c2c1 [Example 126, N-(2-fluoro-3-(5-(4-fluoro-2-methylphenyl)-1H-pyrrolo[2,3-b]pyridine-3-carbonyl)phenyl)-1-phenylmethanesulfonamide]

Row | SMILES | MKK4 [% Ctrl @ 100 nM (MKK4 [1]) | selectivity based on % Ctrl @100 nM vs. Braf (BRaf [2]) | IC50 (MKK4 [3]) [nM] | Selectivity Braf, IC50(off-target)/IC50(MKK4) (BRaf [4]) | selectivity based on % Ctrl @100 nM vs. MKK7 (MKK7 [5]) | selectivity based on % Ctrl @100 nM vs. JNK1 (JNK1 [6]) | Selectivity JNK1, IC50(off-target)/IC50(MKK4) (JNK1 [7]) | Selectivity IVIKK7, IC50(off-target)/IC50(MKK4) (MKK7 [8])
7 | CCCS(=O)(=O)Nc1c(F)ccc(C(=O)c2c[nH]c3ncc(-c4ccc(NC)nc4)cc23)c1F [Example 160, N-(2,6-difluoro-3-(5-(6-(methylamino)pyridin-3-yl)-1H-pyrrolo[2,3-b]pyridine-3-carbonyl)phenyl)propane-1-sulfonamide] | +++ (PoC < 1) | +++ (Ratio > 100) | < 100 | ++ (100 ≥ IC50(off-target)/IC50(MKK4) > 10) | +++ (Ratio > 100) | +++ (Ratio > 100) | ++ (100 ≥ IC50(off-target)/IC50(MKK4) > 10) | +++ (IC50(off-target)/IC50(MKK4) > 100)
8 | O=C(c1c(F)ccc(NS(=O)(=O)CCC(F)(F)F)c1F)c1c[nH]c2ncc(-c3ccc(N4CCOCC4)nc3)cc12 [Example 79, N-(2,4-difluoro-3-(5-(6-morpholinopyridin-3-yl)-1H-pyrrolo[2,3-b]pyridine-3-carbonyl)phenyl)-3,3,3-trifluoropropane-1-sulfonamide] | +++ (PoC < 1) | +++ (Ratio > 100) | < 100 | + (10 ≥ IC50(off-target)/IC50(MKK4) > 3) | +++ (Ratio > 100) | +++ (Ratio > 100) | ++ (100 ≥ IC50(off-target)/IC50(MKK4) > 10) | +++ (IC50(off-target)/IC50(MKK4) > 100)
9 | CCCS(=O)(=O)Nc1ccc(F)c(C(=O)c2c[nH]c3ncc(-c4cccnn4)cc23)c1F [Example 48] | + (3 ≤ PoC < 30) | ◯ (3 ≥ Ratio) | 1000 to 10000 | ◯ (3 ≥ IC50(off-target)/IC50(MKK4)) | ++ (100 ≥ ratio > 10) | ++ (100 ≥ ratio > 10) | ◯ (3 ≥ IC50(off-target)/IC50(MKK4)) | ++ (100 ≥ IC50(off-target)/IC50(MKK4) > 10)
